From patent publication US20230279025A1, “KRAS G12D INHIBITORS” (Mirati Therapeutics, Inc., priority 2020, published 2023)

Molecular target: KRas G12D (Homo sapiens (Human), UniProt P01116, G12D)
Experiment: KRas G12D Binding Assay (TR-FRET displacement of Cy5 labelled tracer)
Settings: GDP-loaded KRAS G12D (amino acids 1:169), 60 minute incubation at 22° C.
Experimental: After a 60 minute incubation at 22° C., the reaction was measured using a PerkinElmer EnVision multimode plate reader via TR-FRET dual wavelength detection, and the percent of control (POC) calculated using a ratiometric emission factor. […] The POC values were fit to a 4-parameter logistic curve and the IC50 value was determined as the concentration where the curve crosses 50 POC.
ND stands for “not determined.”

KRas G12D, sequence (P01116 other isoform, or with tags, fused parts or gaps G12D): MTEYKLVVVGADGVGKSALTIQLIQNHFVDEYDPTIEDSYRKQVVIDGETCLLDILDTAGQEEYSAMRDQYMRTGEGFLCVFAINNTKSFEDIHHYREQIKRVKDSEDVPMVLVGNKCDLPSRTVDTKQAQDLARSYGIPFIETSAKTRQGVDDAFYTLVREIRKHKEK

In order of falling IC50:
1. O[C@@H]1C[C@@H]2CN(c3nc(OCCc4ccc(F)cn4)nc4c(F)c(-c5cccc6cccc(Cl)c56)ncc34)C[C@H]1N2 [Example 32, (1R,5R,6R)-3-(7-(8-chloronaphthalen-1-yl)-8-fluoro-2-(2-(5-fluoropyridin-2-yl)ethoxy)pyrido[4,3-d]pyrimidin-4-yl)-3,8-diazabicyclo[3.2.1]octan-6-ol]  2140 nM
2. CN1CC[C@@H](Oc2nc(N3C[C@H]4CC[C@@H](C3)N4)c3cnc(-c4cccc5cccc(Cl)c45)c(F)c3n2)C1 [Example 358, 4-((1R,5S)-3,8-diazabicyclo[3.2.1]octan-3-yl)-7-(8-chloronaphthalen-1-yl)-8-fluoro-2-(((R)-1-methylpyrrolidin-3-yl)oxy)pyrido[4,3-d]pyrimidine]  1980 nM
3. Cc1c(F)cccc1-c1ncc2c(N3C[C@H]4CC[C@@H](C3)N4)nc(OCC34CCCN3CCC4)nc2c1F [Example 294, 4-((1R,5S)-3,8-diazabicyclo[3.2.1]octan-3-yl)-8-fluoro-7-(3-fluoro-2-methylphenyl)-2-((hexahydro-1H-pyrrolizin-7a-yl)methoxy)pyrido[4,3-d]pyrimidine]  620 nM
4. Cc1ccc2cccc(-c3ncc4c(N5C[C@H]6CC[C@@H](C5)N6)nc(OC[C@@H]5CCCN5C)nc4c3F)c2c1 [Example 321, 4-((1R,5S)-3,8-diazabicyclo[3.2.1]octan-3-yl)-8-fluoro-7-(7-methylnaphthalen-1-yl)-2-(((S)-1-methylpyrrolidin-2-yl)methoxy)pyrido[4,3-d]pyrimidine]  613 nM
5. C[C@@H]1C[C@H]1c1ccccc1-c1ncc2c(N3C[C@H]4CC[C@@H](C3)N4)nc(OCC34CCCN3CCC4)nc2c1F [Example 288, 4-((1R,5S)-3,8-diazabicyclo[3.2.1]octan-3-yl)-8-fluoro-2-((hexahydro-1H-pyrrolizin-7a-yl)methoxy)-7-(2-((1R,2R)-2-methylcyclopropyl)phenyl)pyrido[4,3-d]pyrimidine]  590 nM
6. Fc1c(-c2c(Cl)ccc3ccccc23)ncc2c(N3C[C@H]4CC[C@@H](C3)N4)nc(OCC34CCCN3CCC4)nc12 [Example 349, 4-((1R,5S)-3,8-diazabicyclo[3.2.1]octan-3-yl)-7-(2-chloronaphthalen-1-yl)-8-fluoro-2-((tetrahydro-1H-pyrrolizin-7a(5H)-yl)methoxy)pyrido[4,3-d]pyrimidine]  561 nM
7. Cc1cc2sc(N)nc2c(-c2ncc3c(N4C[C@H]5CC[C@@H](C4)N5)nc(OC[C@@]45CCCN4C[C@H](F)C5)nc3c2F)c1C [Example 457, 4-(4-((1R,5S)-3,8-diazabicyclo[3.2.1]octan-3-yl)-8-fluoro-2-(((2R,7aS)-2-fluorohexahydro-1H-pyrrolizin-7a-yl)methoxy)pyrido[4,3-d]pyrimidin-7-yl)-5,6-dimethylbenzo[d]thiazol-2-amine]  475 nM
8. COc1c(C)cccc1-c1ncc2c(N3C[C@H]4CC[C@@H](C3)N4)nc(OCC34CCCN3CCC4)nc2c1F [Example 313, 4-((1R,5S)-3,8-diazabicyclo[3.2.1]octan-3-yl)-8-fluoro-2-((hexahydro-1H-pyrrolizin-7a-yl)methoxy)-7-(2-methoxy-3-methylphenyl)pyrido[4,3-d]pyrimidine]  231 nM
9. CN1CCC[C@H]1COc1nc(N2CC3CCC(C2)N3)c2cnc(-c3cccc4cccc(C#N)c34)c(F)c2n1 [Example 192]  225 nM
10. Cc1ccc2[nH]ncc2c1-c1ncc2c(N3C[C@H]4CC[C@@H](C3)N4)nc(OCC34CCCN3CCC4)nc2c1F [Example 332, 4-((1R,5S)-3,8-diazabicyclo[3.2.1]octan-3-yl)-8-fluoro-7-(5-methyl-1H-indazol-4-yl)-2-((tetrahydro-1H-pyrrolizin-7a(5H)-yl)methoxy)pyrido[4,3-d]pyrimidine]  164 nM
11. CN(C)Cc1ccc(COCCNC(=O)O[C@@H]2C[C@@H](COc3nc(N4C[C@H]5CC[C@@H](C4)N5)c4cnc(-c5cccc6cccc(Cl)c56)c(F)c4n3)N(C)C2)cc1 [Example 308, (3R,5S)-5-(((4-((1R,5S)-3,8-diazabicyclo[3.2.1]octan-3-yl)-7-(8-chloronaphthalen-1-yl)-8-fluoropyrido[4,3-d]pyrimidin-2-yl)oxy)methyl)-1-methylpyrrolidin-3-yl (2-((4-((dimethylamino)methyl)benzyl)oxy)ethyl)carbamate]  117 nM
12. Cc1ccc2[nH]ncc2c1-c1ncc2c(N3CC4CCC(C3)N4)nc(OCC34CCCN3C[C@H](F)C4)nc2c1F (mixture of isomers) [Example 331, 4-((1R,5S)-3,8-diazabicyclo[3.2.1]octan-3-yl)-8-fluoro-2-((2-fluorotetrahydro-1H-pyrrolizin-7a(5H)-yl)methoxy)-7-(5-methyl-1H-indazol-4-yl)pyrido[4,3-d]pyrimidine (racemic, trans)]  114 nM
13. Fc1c(-c2cccc3c2CCC3)ncc2c(N3CC4CCC(C3)N4)nc(OC[C@@]34CCCN3C[C@H](F)C4)nc12 [Example 428, 4-(3,8-diazabicyclo[3.2.1]octan-3-yl)-7-(2,3-dihydro-1H-inden-4-yl)-8-fluoro-2-(((2R,7aS)-2-fluorotetrahydro-1H-pyrrolizin-7a(5H)-yl)methoxy)pyrido[4,3-d]pyrimidine]  92.1 nM
14. C=Cc1cccc2cccc(-c3ncc4c(N5C[C@H]6CC[C@@H](C5)N6)nc(OC[C@@H]5CCCN5C)nc4c3F)c12 [Example 201, 4-((1R,5S)-3,8-diazabicyclo[3.2.1]octan-3-yl)-8-fluoro-2-(((S)-1-methylpyrrolidin-2-yl)methoxy)-7-(8-vinyInaphthalen-1-yl)pyrido[4,3-d]pyrimidine]  70.2 nM
15. Cc1c(Cl)cccc1-c1ncc2c(N3C[C@H]4CC[C@@H](C3)N4)nc(OCC34CCCN3CCC4)nc2c1F [Example 274, 4-((1R,5S)-3,8-diazabicyclo[3.2.1]octan-3-yl)-7-(3-chloro-2-methylphenyl)-8-fluoro-2-((hexahydro-1H-pyrrolizin-7a-yl)methoxy)pyrido[4,3-d]pyrimidine]  35.9 nM
16. C[C@@H]1C[C@@H]1c1ccccc1-c1ncc2c(N3C[C@H]4CC[C@@H](C3)N4)nc(OCC34CCCN3CCC4)nc2c1F [Example 286, 4-((1R,5S)-3,8-diazabicyclo[3.2.1]octan-3-yl)-8-fluoro-2-((hexahydro-1H-pyrrolizin-7a-yl)methoxy)-7-(2-((S,2R)-2-methylcyclopropyl)phenyl)pyrido[4,3-d]pyrimidine]  17.2 nM
17. CC(C)c1c(F)cc(O)cc1-c1ncc2c(N3C[C@H]4CC[C@@H](C3)N4)nc(OC[C@@]34CCCN3C[C@H](F)C4)nc2c1F [Example 290, 3-(4-((1R,5S)-3,8-diazabicyclo[3.2.1]octan-3-yl)-8-fluoro-2-(((2R,7aS)-2-fluorotetrahydro-1H-pyrrolizin-7a(5H)-yl)methoxy)pyrido[4,3-d]pyrimidin-7-yl)-5-fluoro-4-isopropylphenol]  2.1 nM
18. CSc1cccc2cccc(-c3ncc4c(N5C[C@H]6CC[C@@H](C5)N6)nc(OCC56CCCN5CCC6)nc4c3F)c12 [Example 199, 4-((1R,5S)-3,8-diazabicyclo[3.2.1]octan-3-yl)-8-fluoro-7-(8-(methylthio)naphthalen-1-yl)-2-((tetrahydro-1H-pyrrolizin-7a(5H)-yl)methoxy)pyrido[4,3-d]pyrimidine]  2 nM
19. CC(C)c1c(Cl)cc(O)cc1-c1ncc2c(N3C[C@H]4CC[C@@H](C3)N4)nc(OC[C@@]34CCCN3C[C@H](F)C4)nc2c1F [Example 291, 3-(4-((1R,5S)-3,8-diazabicyclo[3.2.1]octan-3-yl)-8-fluoro-2-(((2R,7aS)-2-fluorohexahydro-1H-pyrrolizin-7a-yl)methoxy)pyrido[4,3-d]pyrimidin-7-yl)-5-chloro-4-isopropylphenol]  1.6 nM
20. COC[C@H]1CC[C@@]2(COc3nc(N4CC5CCC(C4)N5)c4cnc(-c5cc(O)cc6ccccc56)c(F)c4n3)CCCN12 (stereo in doubt) [Example 389, 4-(4-((1R,5S)-3,8-diazabicyclo[3.2.1]octan-3-yl)-8-fluoro-2-((3-(methoxymethyl)tetrahydro-1H-pyrrolizin-7a(5H)-yl)methoxy)pyrido[4,3-d]pyrimidin-7-yl)naphthalen-2-ol]  1.4 nM
21. C#Cc1cccc2cc(O)cc(-c3ncc4c(N5CC6CCC(C5)N6)nc(OC[C@@]56CCCN5C[C@H](OC)C6)nc4c3F)c12 (stereo in doubt) [Example 410, 4-(4-((1R,5S)-3,8-diazabicyclo[3.2.1]octan-3-yl)-8-fluoro-2-((2-methoxytetrahydro-1H-pyrrolizin-7a(5H)-yl)methoxy)pyrido[4,3-d]pyrimidin-7-yl)-5-ethynylnaphthalen-2-ol]  1 nM
22. Oc1cc(-c2ncc3c(N4C[C@H]5CC[C@@H](C4)N5)nc(OCC45CCCN4CCC5)nc3c2F)c2c(F)cccc2c1 [Example 367, 4-(4-((1R,5S)-3,8-diazabicyclo[3.2.1]octan-3-yl)-8-fluoro-2-((tetrahydro-1H-pyrrolizin-7a(5H)-yl)methoxy)pyrido[4,3-d]pyrimidin-7-yl)-5-fluoronaphthalen-2-ol tris(2,2,2-trifluoroacetate)]  0.7 nM
23. CCc1c(F)ccc2cccc(-c3ncc4c(N5CC6CCC(C5)N6)nc(OC[C@@]56CCCN5C[C@H](F)C6)nc4c3F)c12 (stereo in doubt) [Example 381, 4-((1R,5S)-3,8-diazabicyclo[3.2.1]octan-3-yl)-7-(8-ethyl-7-fluoronaphthalen-1-yl)-8-fluoro-2-((2-fluorotetrahydro-1H-pyrrolizin-7a(5H)-yl)methoxy)pyrido[4,3-d]pyrimidine]  0.7 nM
24. Oc1ccc(OC(F)(F)F)c(-c2ncc3c(N4CC5CCC(C4)N5)nc(OCC45CCCN4C[C@H](F)C5)nc3c2F)c1 (mixture of isomers) [Example 340, 3-(4-((1R,5S)-3,8-diazabicyclo[3.2.1]octan-3-yl)-8-fluoro-2-((2-fluorotetrahydro-1H-pyrrolizin-7a(5H)-yl)methoxy)pyrido[4,3-d]pyrimidin-7-yl)-4-(trifluoromethoxy)phenol (racemic, trans)]  0.4 nM
